Measurements: PubChem BioAssay AID2060336 (Molecular Pharmacology Branch, DTP, NCI, 2025)
pIC50: −log10 of the molar value.

Test system: 958767-090-R-J1-PDC spheroid growth
Experiment: Anticancer human tumor 958767-090-R-J1-PDC patient-derived head and neck squamous carcinoma cell line growth inhibition [IpAb]
Conditions: spheroids with HUVEC and MSC; for pIC50: curve of first compound; for viability, T/C: stronger effect = lower value
Source text: Combinatorial screen of targeted agents with ipatasertib and abemaciclib in multi-cell type tumor spheroids
A high-throughput screen of multi-cell type tumor spheroids was designed to identify active combinations of targeted small molecules and ipatasertib or abemaciclib. Complex spheroids include a stromal component modeled by human endothelial cells (HUVEC) and fibroblasts modeled by human mesenchymal stem cells (MSCs). The concentration ranges selected for each drug and investigational agent were based upon clinically achievable concentrations if the clinical Cmax of the agent was known.
Compounds. The drugs and investigational agents: ipatasertib (NSC767898), abemaciclib(NSC768073), selumetinib (NSC741078), trametinib (758246), adavosertib (NSC754352), everolimus (NSC733504), sapanisertib (NSC764658), vemurafenib (NSC761431), venetoclax (NSC766270), copanlisib (NSC809693), apelisib (NSC765974), palbociblib (NSC758247), vemurafenib (NSC761431), dabrafenib (NSC764134), ravoxertinib (NSC781343), BMS-387032 (NSC767048), sotorasib (NSC818433), talazoparib (NSC767125) and afursertib (NSC778305), were obtained from the National Cancer Institute (NCI) Developmental Therapeutics Program Chemical Repository. The FDA-approved anticancer drug set is available from the NCI Developmental Therapeutics Program. […] The stock solutions were prepared in dimethyl sulfoxide (DMSO, Sigma-Aldrich, St. Louis, MO, cat. D2650) at 800-fold the tested concentration and stored at -70 degrees C prior to their use. All drugs and investigational agents were tested over a range starting from a high concentration at or near the clinical Cmax and decreasing in half-log increments. If the clinical Cmax for an agent had not been determined, the highest concentration tested was 10 microM.
NCI60 Cell Culture. NCI60 cell lines were obtained from the NCI Developmental Therapeutics Program Tumor Repository. For each lot of cells, the Repository performed Applied Biosystems AmpFLSTR Identifiler testing with PCR amplification to confirm consistency with the published Identifier STR profile for each cell line. Cells were kept in continuous culture for no more than 20 passages. The optimal seeding densities for each of the cell lines at each time point assessed were determined prior to performing the concentration response studies. Briefly, the NCI60 human tumor lines were grown as monolayers in RPMI 1640 medium supplemented with 10% FBS and 2 mmol/L L-glutamine.
An additional 9 lines were from the NCI60 cell line panel including MDA-MB-231 breast carcinoma, MDA-MB-468 breast carcinoma, MCF7 breast carcinoma, Hs578T breast carcinoma, MALME-3M melanoma, SK-MEL-2 melanoma, SK-OV-3 ovarian carcinoma, DU-145 prostate carcinoma, PC-3 prostate carcinoma, all cell lines along with major genetic alterations are listed on Table 2. Pooled donor human umbilical vein endothelial cells (HUVEC, Lonza, cat. CC-2519) and human mesenchymal stem cells (hMSC, Lonza, cat. PT-2501) were purchased from Lonza (Walkersville, MD).
PDMR cell lines were grown in complete medium (DC medium): Dulbecco's modified Eagle's medium (DMEM)/F12 supplemented with 5% fetal bovine serum (FBS), 2 mM L-glutamine, 100 U/mL penicillin and 100 µg/ml streptomycin, 0.4 µg/ml hydrocortisone, 10 ng/ml epidermal growth factor (EGF) recombinant human protein, 24 µg/mL adenine, and 0.1 mg/mL primocin. During culture from frozen stock vials, PDMR cells were cultured in the same medium containing 10 µM Y-27632 (see Table 3). The PDCs were cultured in complete DMEM/F12 media without 10 microM Y-27632 dihydrochloride for at least two passages prior to the screen. The pooled donor HUVEC and hMSC were cultured in endothelial cell growth medium 2 (PromoCell, Heidelberg, Germany, cat. C-22011) and mesenchymal stem cell growth medium 2 (PromoCell, cat. C-28009), respectively. For all experiments, HUVEC and hMSC were used at passages </=5.
[…]

[1] = second compound 0.01 µM, first compound 0.00949 µM
[2] = second compound 0.01 µM, first compound 0.03 µM
[3] = second compound 0.01 µM, first compound 0.0949 µM
[4] = second compound 0.01 µM, first compound 0.3 µM
[5] = second compound 0.0316 µM, first compound 0.00949 µM
[6] = second compound 0.0316 µM, first compound 0.03 µM
[7] = second compound 0.0316 µM, first compound 0.0949 µM
[8] = second compound 0.0316 µM, first compound 0.3 µM
[9] = second compound 0.1 µM, first compound 0.00949 µM
[10] = second compound 0.1 µM, first compound 0.03 µM
[11] = second compound 0.1 µM, first compound 0.0949 µM
[12] = second compound 0.1 µM, first compound 0.3 µM
[13] = second compound 0.316 µM, first compound 0.00949 µM
[14] = second compound 0.316 µM, first compound 0.03 µM
[15] = second compound 0.316 µM, first compound 0.0949 µM
[16] = second compound 0.316 µM, first compound 0.3 µM
[17] = second compound 1 µM, first compound 0.00949 µM
[18] = second compound 1 µM, first compound 0.03 µM
[19] = second compound 1 µM, first compound 0.0949 µM
[20] = second compound 1 µM, first compound 0.3 µM
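Also: spheroids exposed to agents for 7 days.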
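For viability, T/C in this document: 100% = DMSO vehicle control wells.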

Row | SMILES | pIC50 (second compound 0.01 µM) | pIC50 (second compound 0.0316 µM) | pIC50 (second compound 0.1 µM) | pIC50 (second compound 0.316 µM) | pIC50 (second compound 1 µM) | viability, T/C [1] [%] | viability, T/C [2] [%] | viability, T/C [3] [%] | viability, T/C [4] [%] | viability, T/C [5] [%] | viability, T/C [6] [%] | viability, T/C [7] [%] | viability, T/C [8] [%] | viability, T/C [9] [%] | viability, T/C [10] [%] | viability, T/C [11] [%] | viability, T/C [12] [%] | viability, T/C [13] [%] | viability, T/C [14] [%] | viability, T/C [15] [%] | further results
1 | CC(=O)c1c(C)c2cnc(Nc3ccc(N4CCNCC4)cn3)nc2n(C2CCCC2)c1=O + CCN1CCN(Cc2ccc(Nc3ncc(F)c(-c4cc(F)c5nc(C)n(C(C)C)c5c4)n3)nc2)CC1 | < 6.52 | < 6.52 | 6.86 | 6.58 | < 6.52 | 66.5 | 64.3 | 59.6 | 53.4 | 54.2 | 53.8 | 56.5 | 49.7 | 65.7 | 53.6 | 44.4 | 50.9 | 57.2 | 52.9 | 51.1 | viability, T/C (second compound 0.01 µM, first compound 0.000949 µM): 80.7%; viability, T/C (second compound 0.01 µM, first compound 0.003 µM): 72.5%; viability, T/C (second compound 0.0316 µM, first compound 0.000949 µM): 73.8%; viability, T/C (second compound 0.0316 µM, first compound 0.003 µM): 75.5%; viability, T/C (second compound 0.1 µM, first compound 0.000949 µM): 61.5%; viability, T/C (second compound 0.1 µM, first compound 0.003 µM): 56.2%; viability, T/C (second compound 0.316 µM, first compound 0.000949 µM): 54.2%; viability, T/C (second compound 0.316 µM, first compound 0.003 µM): 50.7%; viability, T/C [16]: 47.9%; viability, T/C (second compound 1 µM, first compound 0.000949 µM): 65.2%; viability, T/C (second compound 1 µM, first compound 0.003 µM): 63.8%; viability, T/C [17]: 60.6%; viability, T/C [18]: 65.2%; viability, T/C [19]: 62.2%; viability, T/C [20]: 53.1%
2 | CC(C)(C)c1cnc(CSc2cnc(NC(=O)C3CCNCC3)s2)o1 + CCN1CCN(Cc2ccc(Nc3ncc(F)c(-c4cc(F)c5nc(C)n(C(C)C)c5c4)n3)nc2)CC1 | 6.84 | 6.87 | 7.03 | 7.37 | 7.32 | 106 | 97.6 | 76.5 | 2.6 | 98.5 | 84.2 | 70.5 | 1.81 | 76.2 | 63.3 | 50.1 | 2.58 | 71.2 | 59.6 | 27.2 | viability, T/C (second compound 0.01 µM, first compound 0.949 µM): 2.82%; viability, T/C (second compound 0.01 µM, first compound 3 µM): 2.81%; viability, T/C (second compound 0.0316 µM, first compound 0.949 µM): 2.35%; viability, T/C (second compound 0.0316 µM, first compound 3 µM): 1.86%; viability, T/C (second compound 0.1 µM, first compound 0.949 µM): 1.95%; viability, T/C (second compound 0.1 µM, first compound 3 µM): 2.75%; viability, T/C [16]: 1.79%; viability, T/C (second compound 0.316 µM, first compound 0.949 µM): 3.55%; viability, T/C (second compound 0.316 µM, first compound 3 µM): 3.21%; viability, T/C [17]: 91.7%; viability, T/C [18]: 78.2%; viability, T/C [19]: 9.34%; viability, T/C [20]: 3.35%; viability, T/C (second compound 1 µM, first compound 0.949 µM): 3.92%; viability, T/C (second compound 1 µM, first compound 3 µM): 2.96%
